Key:
Assay type in all cases: cell-based
[1] = tested on: human monocytes differentiating into osteoclasts; assay: Human osteoclast differentiation in vitro (multinucleation, TRAP); conditions: 10 and 100 μM, 8 days after RANKL
Experimental: Human monocytes were isolated from normal buffy coat cells (60-80 ml) obtained with approval of institutional review boards by separation from donor blood, the white-cell depleted blood retained for clinical use. Human monocyte culture and differentiation were as reported (see, Yaroslayskly B B, Zhang Y, Kalla S E, Garcia P V, Sharrow A C, Li Y, Zaidi M, Wu C, Blair H C, “NO-dependent osteoclast motility: Reliance on cGMP-dependent protein kinase I and VASP”, J Cell Sci I, Vol. 18, pages 5479-5487, 2005). Briefly, human monocytes cells were isolated from buffy coat on ficoll lymphocyte separation media and cultured at ˜6×10^5 cells per cm^2 in monocyte maintenance medium, Dulbecco's modified essential medium (DMEM) with 20 ng/ml of human m-CSF and 10% FBS, for 24 hours (h). After 24 h in culture, the medium was changed to osteoclast differentiation medium containing in addition of human 50 ng/ml of RANKL, with the additional inhibitors or activators as specified in results. Human osteoclast cultures were generally maintained for a minimum of 7 days before analysis, or longer times as specified in results.
The effect of DCPA on human osteoclast differentiation 8 days after addition of RANKL was evaluated.

CRAC channel [2] = target: T1, CRAC channel (Homo sapiens, UniProt Q13586); assay: CRAC channel activity by Fura-2 fluorescence in Jurkat cells after thapsigargin; set-up: endogenous in cells; host or cells: Jurkat cells; conditions: 100 uM, 10 minutes before thapsigargin
T1 sequence (Q13586 23-685): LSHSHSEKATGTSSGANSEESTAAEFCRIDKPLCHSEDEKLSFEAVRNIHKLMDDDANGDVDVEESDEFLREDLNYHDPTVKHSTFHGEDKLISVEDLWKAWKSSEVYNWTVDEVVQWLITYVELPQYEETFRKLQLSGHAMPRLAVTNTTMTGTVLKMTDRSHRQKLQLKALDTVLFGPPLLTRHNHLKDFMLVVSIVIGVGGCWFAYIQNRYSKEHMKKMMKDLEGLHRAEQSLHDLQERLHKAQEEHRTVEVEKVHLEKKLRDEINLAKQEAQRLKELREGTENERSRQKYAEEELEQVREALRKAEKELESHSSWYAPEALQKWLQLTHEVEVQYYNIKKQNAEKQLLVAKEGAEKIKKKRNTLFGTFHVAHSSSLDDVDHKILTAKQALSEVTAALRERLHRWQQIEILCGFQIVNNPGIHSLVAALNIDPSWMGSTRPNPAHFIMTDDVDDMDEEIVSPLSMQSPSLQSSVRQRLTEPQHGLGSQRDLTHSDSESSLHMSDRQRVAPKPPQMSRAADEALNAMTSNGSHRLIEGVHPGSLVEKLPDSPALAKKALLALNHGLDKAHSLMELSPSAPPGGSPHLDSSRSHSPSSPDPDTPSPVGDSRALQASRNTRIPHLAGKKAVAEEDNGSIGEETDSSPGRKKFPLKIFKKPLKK
Experimental: Ratiometric imaging of intracellular Ca^2+ using fura-2 was as described (see, Zhou et al., 2009 above). Briefly, cells on coverslips, in cation safe solution (107 mM NaCl, 7.2 mM KCl, 1.2 mM MgCl2, 11.5 mM glucose, 20 mM HEPES-NaOH, pH 7.2) were loaded with fura-2 acetoxymethyl ester (2 μM) for 30 min at 24° C. Cells were washed and fluorescent probe was allowed to de-esterify for 30 min. From signal remaining after saponin permeabilization, ˜85% of the dye was confined to the cytoplasm (see, Ma H-T, Patterson R L. van Rossum D B. Birnbaumer L, Mikoshiba K, Gill D L, “Requirement of the inositol trisphosphate receptor for activation of store-operated Ca^2+ channels”, Science, Vol. 287, pages 1647-1651, 2000). Ca^2+ measurements were made using a Leica DMI 6000B fluorescence microscope controlled by Slidebook Software. Fluorescence emission at 505 nm was monitored while alternating between 340 and 380 nm excitation wavelengths at a frequency of 0.67 Hz; intracellular Ca^2+ measurements are shown as 340/380 nm emission ratios obtained from groups (35-45) of single cells. Measurements shown are representative a minimum of three independent experiments.
N-(3,4-dibromophenyl)propanamide]. Jurkat cells, a T cell line that is very sensitive to DCPA, was cultured with the indicated compounds, DCPA, DBPA, and ethanol (EtOH). CRAC channel activity was monitored using Fura-2 fluorescence using standard known techniques. Cells were incubated in each composition at 100 uM for 10 minutes prior to addition of the SERCA inhibitor thapsigargin (Tg) to induce SOCe. Decreased CRAC channel activity is clearly evident with DCPA and DBPA.
Jurkat cells, a T cell line that is very sensitive to DCPA, was cultured with the indicated compositions of the present invention, namely, DNI, NM Propanil, and DNMNI. CRAC channel activity was monitored using Fura-2 fluorescence using standard known techniques. Cells were incubated in each composition at 100 uM for 10 minutes prior to addition of the SERCA inhibitor thapsigargin (Tg) to induce SOCe. Decreased CRAC channel activity is clearly evident with each of the compositions of the present invention. […] Each of the compositions of this invention achieve the results achieved with the known DCPA but without the burden of toxicity of DCPA that would accompany further metabolism of DCPA.

[3] = tested on: Store-Operated Calcium Entry (SOCE); assay: Store-Operated Calcium Entry (SOCE) inhibition dose response (FIG. 10)
CRAC channel [4] = target: T1, CRAC channel; assay: CRAC channel activity as measured by intracellular calcium influx; conditions: for effect on intracellular calcium influx and toxicity in relation to CRAC channel inhibition: DCPA metabolites
Description: The metabolism of DCPA by acylamidase produces DCA as mentioned above. DCA is then metabolized to N—OH-DCA and 6-OH-DCA. Both N—OH-DCA and 6-OH-DCA contribute to the systemic toxicity associated with in vivo administration of DCPA. […] Thus, the CRAC channel inhibitory activity of DCPA is not attributable to any of these toxic metabolites. Given that the CRAC channel inhibition associated with DCPA was not due to the more toxic metabolites, the present invention discloses haloanilide compositions of Formula I, and salts thereof that are not metabolized to DCA but that have similar CRAC channel inhibitory qualities of DCPA:
[drawing 7] wherein X is either chlorine or bromine, Y is either hydrogen or an alkyl group having a carbon chain length from 1 to 5 carbon atoms, and R is an alkyl group having a carbon chain length from 1 to 5 carbon atoms, except wherein X is not chlorine when Y is hydrogen and R is an ethyl group. Synthesis routes for N-(3,4-dibromophenyl)propanamide [also referred to as “DBPA” or “N-(3,4-bibromophenyl)propionamide”], N-(3,4-dichlorophenyl)-N-methylpropanamide [also referred to as “N-Methyl Propanil”; or “N-Methyl-DCPA”; or “NMP”; or “NM Propanil”; or “N-(3,4-dichlorophenyl)-N-methylpropionamide”; or “N,N-Methyl, Propyl-CA” (CA=carboxamide)], 3,4-dichloro-N-methyl-N-isobutyramide [also referred to as “N-(3,4-dichlorophenyl)-N,2-dimethylpropanamide”; or “DNMI”], N-(3,4-dichlorophenyl)-2-dimethylpropanamide, N-(3,4-dichlorophenyl)isobutyramide [also referred to as “DNI” or “N-Isobutyl-CA” (CA=carboxamide)], and N-(3,4-dichlorophenyl)-N-methylisobutyramide [also referred to as “N,N-Me, Isobutyl-CA” (CA=carboxamide)]. Each of the haloanilide compositions of this invention have undergone in vitro toxicity testing on Jurkat cells—this is a T cell line that is sensitivity to toxic effects and thus, was used to determine the effect of the compounds on viability. Each of the compositions of Formula I are capable of inhibiting CRAC channel activity as measured by intracellular calcium influx. […] FIGS. 4 and 5 show chemical structures of preferred haloanilide compositions of this invention.

[5] = target: T2, STIM I/Orai I interaction (Homo sapiens, UniProt Q13586); assay: 2-APB-induced STIM I ct translocation to plasma membrane; conditions: 2-APB 50 μM, as early as 5 seconds
T2 construct: the cytosolic fragment of STIM I (STIM 1 ct); expressed in transfected cells
T2 sequence (Q13586 235-685 limits assumed): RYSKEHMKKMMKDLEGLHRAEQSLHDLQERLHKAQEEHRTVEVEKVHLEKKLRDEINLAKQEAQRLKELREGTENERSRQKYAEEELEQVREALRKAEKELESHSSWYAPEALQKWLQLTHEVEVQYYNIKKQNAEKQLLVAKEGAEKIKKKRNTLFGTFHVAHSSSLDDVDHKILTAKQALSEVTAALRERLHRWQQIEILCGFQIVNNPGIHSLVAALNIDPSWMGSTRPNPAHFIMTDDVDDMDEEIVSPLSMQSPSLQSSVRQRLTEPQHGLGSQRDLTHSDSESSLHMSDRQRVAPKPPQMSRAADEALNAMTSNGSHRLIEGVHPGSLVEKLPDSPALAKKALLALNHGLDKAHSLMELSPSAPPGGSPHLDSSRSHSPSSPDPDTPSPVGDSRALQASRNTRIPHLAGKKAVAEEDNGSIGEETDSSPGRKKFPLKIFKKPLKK
Experimental: HEK293 cells, maintained in DMEM with 10% FBS, were transfected with YFP-STIM I using Lipofectamine 2000 (Invitrogen, Carlsbad, Calif.) for 5 h (37° C.; 5% CO2) followed by a 24-h recovery. Cells were placed in 140 mM NaCl, 5 mM KCl, 1 mM MgCl2, 10 mM glucose, 15 mM HEPES, 0.1% BSA, 2 mM CaCl2 and analyzed by confocal microscopy for STIM I puncta formation using a Nikon phase-fluorescence microscope with CCD detectors (Diagnostic instruments, Sterling Heights, Mich.). Phase or transmitted light microscopy used 10-40× objectives and red, green, and blue filters to assemble color images. Fluorescence images used 1.4 NA 40× oil objectives. Red fluorescence used excitation at 530-560 nm, a 575 nm dichroic minor, and 580-650 nm emission filter. Transfection data were analyzed using Nikon NIS Elements Imaging Software. The effect of DCPA on STIM I/Orai I association was determined in wild-type HEK293 cells transfected with STIM I-YFP as described in Wang Y, Deng X, Zhou Y, Hendron E, Mancarelia S, Ritchie M F, Tang X D, Baba Y, Kurosaki T, Mori Y, Soboloff J, Gill DL, “STIM protein coupling in the activation of Orai channels”, Proc Natl Acad Sci USA, Vol. 106, pages 7391-7396, 2009. Experiments were performed on a Leica DMI 6000B fluorescence microscope controlled by Slidebook Software (Intelligent Imaging Innovations, Denver, Colo.).

Compound	CRAC channel activity (CRAC channel [2])	effect on intracellular calcium influx and toxicity in relation to CRAC channel inhibition (CRAC channel [4])	other results
CCC(=O)Nc1ccc(F)c(F)c1 [DFPA, 3,4-difluoropropioanilide]			number of multinucleated cells [1]: no significant effect
CC(C)C(=O)N(C)c1ccc(Cl)c(Cl)c1 [DNMNI, N-(3,4-dichlorophenyl)-N-methylisobutyramide]	Decreased		
CCC(=O)N(C)c1ccc(Cl)c(Cl)c1 [NMP, N-(3,4-dichlorophenyl)-N-methylpropanamide]	Decreased		IC50 ([3]; FIG. 10B): 104 µM; dose response compared with known DCPA ([3]; doses 3 μM to 1 mM, FIG. 10A): at least equal; inhibition of CRAC channel activity as measured by intracellular calcium influx (CRAC channel [4]): effective at lower concentrations
Nc1cc(Cl)c(Cl)cc1O [6-OH-DCA]		not associated with CRAC channel inhibition	
ONc1ccc(Cl)c(Cl)c1 [N—OH-DCA]		not associated with CRAC channel inhibition	
CCC(=O)Nc1ccc(Br)c(Br)c1 [DBPA, N-(3,4-dibromophenyl)propanamide]	Decreased		
CC(C)C(=O)Nc1ccc(Cl)c(Cl)c1 [DNI, N-(3,4-dichlorophenyl)isobutyramide]	Decreased		
NCCOB(c1ccccc1)c1ccccc1 [2-APB, 2-aminoethoxydiphenylborate]			translocation of STIM I ct towards the PM [5]: significant translocation
Nc1ccc(Cl)c(Cl)c1 [DCA, dichloroaniline]		not associated with CRAC channel inhibition	

— patent US10682320B2, “Method for inhibiting osteoclast development” (West Virginia University, priority 2012, dated 2020)
